# Legend:
# Assay type in all cases: functional
# Rattus norvegicus [1] = assay: Percent protection against thioacetamide-induced toxicity in rats using glutamate oxaloacetate transaminase (GOT) when peroral administration of compound 6 mg/kg for 7 days; settings: route oral
# Rattus norvegicus [2] = assay: Percent protection against thioacetamide-induced toxicity in rats using glutamate dehydrogenase (GIDH) when peroral administration of compound 6 mg/kg for 7 days; settings: route oral
# Rattus norvegicus [3] = assay: Percent protection against thioacetamide-induced toxicity in rats using glutamate pyruvate transaminase (GPT) when peroral administration of compound 6 mg/kg for 7 days; settings: route oral
# Rattus norvegicus [4] = assay: Percent protection against thioacetamide-induced toxicity in rats using alkaline phosphatase (ALP) when peroral administration of compound 6 mg/kg for 7 days; settings: route oral
# Rattus norvegicus [5] = organism: Rattus norvegicus; assay: Percent protection against thioacetamide-induced toxicity in rats using acid phosphatase(ACP); parameters: concentration or dose not given beside the values
# Rattus norvegicus [6] = assay: Percent protection against thioacetamide-induced toxicity in rats using acid phosphatase(ACP) at peroral dose of 6 mg/kg for 7 days of compound; settings: route oral
# Rattus norvegicus [7] = assay: Percent protection in carbon tetrachloride-induced model using glutamate pyruvate transaminase(GPT) when peroral administration of compound 6 mg/kg for 7 days; settings: route oral
# Rattus norvegicus [8] = assay: Percent protection in carbon tetrachloride-induced model using glutamate oxaloacetate transaminase(GOT) when peroral administration of compound 6 mg/kg for 7 days; settings: route oral
# Rattus norvegicus [9] = assay: Percent protection in alcohol-induced model using glutamate oxaloacetate transaminase(GOT) when peroral administration of compound 6 mg/kg for 7 days; settings: route oral
# Rattus norvegicus [10] = assay: Percent protection in paracetamol-induced model using alkaline phosphatase(ALP) at peroral dose of 6 mg/kg for 7 days; settings: route oral
# Rattus norvegicus [11] = assay: Percent protection in alcohol-induced model using glutamate pyruvate transaminase(GPT) at peroral dose of 12 mg/kg for 7 days; settings: route oral
# Rattus norvegicus [12] = assay: Percent protection in paracetamol-induced model using acid phosphatase(ACP) when peroral administration of compound 6 mg/kg for 7 days; settings: route oral
# Rattus norvegicus [13] = assay: Percent protection in alcohol-induced model using alkaline phosphatase(ALP) when peroral administration of compound 12 mg/kg for 7 days; settings: route oral
# Rattus norvegicus [14] = assay: Percent protection in paracetamol-induced model using glutamate dehydrogenase(GIDH) when peroral administration of compound 6 mg/kg for 7 days; settings: route oral
# Rattus norvegicus [15] = assay: Percent protection in alcohol-induced model using glutamate dehydrogenase(GIDH) when peroral administration of compound 12 mg/kg for 7 days; settings: route oral
# Rattus norvegicus [16] = assay: Percent protection in carbon tetrachloride-induced model using glutamate dehydrogenase(GIDH) when peroral administration of compound 6 mg/kg for 7 days; settings: route oral
# Rattus norvegicus [17] = assay: Percent protection in galactosamine-induced model using glutamate pyruvate transaminase(GPT) when peroral administration of compound 6 mg/kg for 7 days; settings: route oral
# Rattus norvegicus [18] = assay: Percent protection in carbon tetrachloride-induced model using acid phosphatase(ACP) when peroral administration of compound 6 mg/kg for 7 days; settings: route oral
# Rattus norvegicus [19] = assay: Percent protection in alcohol-induced model using acid phosphatase(ACP) at peroral dose of 6 mg/kg for 7 days; settings: route oral
# Rattus norvegicus [20] = assay: Percent protection in alcohol-induced model using glutamate oxaloacetate transaminase(GOT) when peroral administration of compound 12 mg/kg for 7 days; settings: route oral
# Rattus norvegicus [21] = assay: Percent protection in paracetamol-induced model using glutamate pyruvate transaminase(GPT) when peroral administration of compound 6 mg/kg for 7 days; settings: route oral
# Rattus norvegicus [22] = assay: Percent protection in galactosamine-induced model using glutamate dehydrogenase(GIDH) when peroral administration of compound 6 mg/kg for 7 days; settings: route oral
# Rattus norvegicus [23] = assay: Percent protection in carbon tetrachloride-induced model using alkaline phosphatase(ALP) when peroral administration of compound 6 mg/kg for 7 days; settings: route oral
# Rattus norvegicus [24] = assay: Percent protection in paracetamol-induced model using glutamate oxaloacetate transaminase(GOT) when peroral administration of compound 6 mg/kg for 7 days; settings: route oral
# Rattus norvegicus [25] = assay: Percent protection in alcohol-induced model using glutamate pyruvate transaminase(GPT) when peroral administration of compound 6 mg/kg for 7 days; settings: route oral
# Rattus norvegicus [26] = assay: Percent protection in galactosamine-induced model using alkaline phosphatase(ALP) when peroral administration of compound 6 mg/kg for 7 days; settings: route oral
# Rattus norvegicus [27] = assay: Percent protection in galactosamine-induced model using glutamate oxaloacetate transaminase(GOT) when peroral administration of compound 6 mg/kg for 7 days; settings: route oral
# Rattus norvegicus [28] = assay: Percent protection in alcohol-induced model using acid phosphatase(ACP) when peroral administration of compound 12 mg/kg for 7 days; settings: route oral
# Rattus norvegicus [29] = assay: Percent protection in alcohol-induced model using alkaline phosphatase(ALP) when peroral administration of compound 6 mg/kg for 7 days; settings: route oral
# Rattus norvegicus [30] = assay: Percent protection in alcohol-induced model using glutamate dehydrogenase(GIDH) when peroral administration of compound 6 mg/kg for 7 days; settings: route oral
# Rattus norvegicus [31] = assay: Percent protection in galactosamine-induced model using acid phosphatase(ACP)when peroral administration of compound 6 mg/kg for 7 days; settings: route oral
compound,measurement,setting,value
CSc1cc(-c2ccco2)oc(=O)c1C#N,Protection,Rattus norvegicus [1],71%
same,Protection,Rattus norvegicus [2],15%
same,Protection,Rattus norvegicus [3],72%
same,Protection,Rattus norvegicus [4],19%
same,Protection,Rattus norvegicus [5],0%
CSc1cc(-c2ccc(Br)cc2)oc(=O)c1Br,Protection,Rattus norvegicus [1],47%
same,Protection,Rattus norvegicus [2],28%
same,Protection,Rattus norvegicus [3],18%
same,Protection,Rattus norvegicus [4],15%
same,Protection,Rattus norvegicus [5],72%
CSc1cc(-c2cccs2)oc(=O)c1Br,Protection,Rattus norvegicus [1],50%
same,Protection,Rattus norvegicus [2],4%
same,Protection,Rattus norvegicus [3],55%
same,Protection,Rattus norvegicus [4],37%
same,Protection,Rattus norvegicus [5],25%
CSc1cc(-c2cccs2)oc(=O)c1C#N,Protection,Rattus norvegicus [1],37%
same,Protection,Rattus norvegicus [2],100%
same,Protection,Rattus norvegicus [3],74%
same,Protection,Rattus norvegicus [4],33%
same,Protection,Rattus norvegicus [5],10%
CSc1cc(-c2ccc(Cl)cc2)oc(=O)c1,Protection,Rattus norvegicus [1],46%
same,Protection,Rattus norvegicus [6],24%
same,Protection,Rattus norvegicus [2],43%
same,Protection,Rattus norvegicus [3],51%
same,Protection,Rattus norvegicus [4],42%
CSc1cc(-c2ccc(Cl)cc2)oc(=O)c1Cl,Protection,Rattus norvegicus [1],36%
same,Protection,Rattus norvegicus [6],38%
same,Protection,Rattus norvegicus [2],27%
same,Protection,Rattus norvegicus [3],51%
same,Protection,Rattus norvegicus [4],40%
CSc1cc(-c2ccc(Br)cc2)oc(=O)c1C#N,Protection,Rattus norvegicus [1],20%
same,Protection,Rattus norvegicus [2],40%
same,Protection,Rattus norvegicus [3],10%
same,Protection,Rattus norvegicus [4],56%
same,Protection,Rattus norvegicus [5],38%
CSc1cc(-c2ccc(Cl)cc2)oc(=O)c1Br,Protection,Rattus norvegicus [1],70%
same,Protection,Rattus norvegicus [2],51%
same,Protection,Rattus norvegicus [3],80%
same,Protection,Rattus norvegicus [4],100%
same,Protection,Rattus norvegicus [5],48%
CSc1cc(-c2ccncc2)oc(=O)c1Br,Protection,Rattus norvegicus [1],48%
same,Protection,Rattus norvegicus [2],16%
same,Protection,Rattus norvegicus [3],0%
same,Protection,Rattus norvegicus [4],12%
same,Protection,Rattus norvegicus [5],53%
CSc1cc(-c2ccc(Cl)cc2Cl)oc(=O)c1C#N,Protection,Rattus norvegicus [1],37%
same,Protection,Rattus norvegicus [2],65%
same,Protection,Rattus norvegicus [3],45%
same,Protection,Rattus norvegicus [4],33%
same,Protection,Rattus norvegicus [5],61%
CCOC(=O)c1c(SC)c(C#N)c(-c2ccc(Br)cc2)oc1=O,Protection,Rattus norvegicus [1],0%
same,Protection,Rattus norvegicus [2],2%
same,Protection,Rattus norvegicus [3],0%
same,Protection,Rattus norvegicus [4],0%
same,Protection,Rattus norvegicus [5],2%
CSc1cc(-c2ccc(Br)cc2)oc(=O)c1Cl,Protection,Rattus norvegicus [1],30%
same,Protection,Rattus norvegicus [6],30%
same,Protection,Rattus norvegicus [2],26%
same,Protection,Rattus norvegicus [3],40%
same,Protection,Rattus norvegicus [4],19%
CSc1cc(-c2ccc(F)cc2)oc(=O)c1Br,Protection,Rattus norvegicus [1],0%
same,Protection,Rattus norvegicus [6],49%
same,Protection,Rattus norvegicus [2],0%
same,Protection,Rattus norvegicus [3],0%
same,Protection,Rattus norvegicus [4],43%
CSc1cc(-c2ccc(Cl)cc2)oc(=S)c1Cl,Protection,Rattus norvegicus [1],29%
same,Protection,Rattus norvegicus [2],12%
same,Protection,Rattus norvegicus [3],26%
same,Protection,Rattus norvegicus [4],10%
same,Protection,Rattus norvegicus [5],25%
CSc1cc(-c2ccc(Cl)cc2)oc(=S)c1Br,Protection,Rattus norvegicus [1],25%
same,Protection,Rattus norvegicus [2],20%
same,Protection,Rattus norvegicus [3],0%
same,Protection,Rattus norvegicus [4],36%
same,Protection,Rattus norvegicus [5],0%
COc1cc([C@H]2Oc3cc([C@H]4Oc5cc(O)cc(O)c5C(=O)[C@@H]4O)ccc3O[C@@H]2CO)ccc1O [SILYBIN A],Protection,Rattus norvegicus [7],64%
same,Protection,Rattus norvegicus [8],48%
same,Protection,Rattus norvegicus [9],43%
same,Protection,Rattus norvegicus [10],50%
same,Protection,Rattus norvegicus [1],50.14%
same,Protection,Rattus norvegicus [11],78%
same,Protection,Rattus norvegicus [12],67%
same,Protection,Rattus norvegicus [6],43.25%
same,Protection,Rattus norvegicus [13],77%
same,Protection,Rattus norvegicus [2],38.81%
same,Protection,Rattus norvegicus [14],60%
same,Protection,Rattus norvegicus [15],59%
same,Protection,Rattus norvegicus [16],51%
same,Protection,Rattus norvegicus [17],45%
same,Protection,Rattus norvegicus [18],57%
same,Protection,Rattus norvegicus [19],49%
same,Protection,Rattus norvegicus [20],62%
same,Protection,Rattus norvegicus [21],49%
same,Protection,Rattus norvegicus [3],47.25%
same,Protection,Rattus norvegicus [22],65%
same,Protection,Rattus norvegicus [4],47%
same,Protection,Rattus norvegicus [23],51%
same,Protection,Rattus norvegicus [24],46%
same,Protection,Rattus norvegicus [25],59%
same,Protection,Rattus norvegicus [26],33%
same,Protection,Rattus norvegicus [5],61%
same,Protection,Rattus norvegicus [27],47%
same,Protection,Rattus norvegicus [28],64%
same,Protection,Rattus norvegicus [29],62%
same,Protection,Rattus norvegicus [30],49%
CCOC(=O)c1c(SC)cc(-c2ccc(Cl)cc2)oc1=O,Protection,Rattus norvegicus [1],23%
same,Protection,Rattus norvegicus [6],0%
same,Protection,Rattus norvegicus [2],17%
same,Protection,Rattus norvegicus [3],31%
same,Protection,Rattus norvegicus [4],11%
CSc1cc(-c2ccncc2)oc(=O)c1C#N,Protection,Rattus norvegicus [1],0%
same,Protection,Rattus norvegicus [6],0%
same,Protection,Rattus norvegicus [2],0%
same,Protection,Rattus norvegicus [3],0%
same,Protection,Rattus norvegicus [4],12%
CSc1cc(-c2ccc(Cl)cc2)oc(=O)c1C#N,Protection,Rattus norvegicus [7],67%
same,Protection,Rattus norvegicus [8],59%
same,Protection,Rattus norvegicus [9],34%
same,Protection,Rattus norvegicus [10],73%
same,Protection,Rattus norvegicus [1],68%
same,Protection,Rattus norvegicus [11],69%
same,Protection,Rattus norvegicus [12],90%
same,Protection,Rattus norvegicus [13],56%
same,Protection,Rattus norvegicus [2],51%
same,Protection,Rattus norvegicus [31],66%
same,Protection,Rattus norvegicus [14],54%
same,Protection,Rattus norvegicus [15],62%
same,Protection,Rattus norvegicus [16],58%
same,Protection,Rattus norvegicus [17],76%
same,Protection,Rattus norvegicus [18],70%
same,Protection,Rattus norvegicus [19],53%
same,Protection,Rattus norvegicus [20],58%
same,Protection,Rattus norvegicus [21],81%
same,Protection,Rattus norvegicus [3],69%
same,Protection,Rattus norvegicus [22],57%
same,Protection,Rattus norvegicus [4],65%
same,Protection,Rattus norvegicus [23],57%
same,Protection,Rattus norvegicus [24],73%
same,Protection,Rattus norvegicus [25],48%
same,Protection,Rattus norvegicus [26],68%
same,Protection,Rattus norvegicus [5],59%
same,Protection,Rattus norvegicus [27],86%
same,Protection,Rattus norvegicus [28],74%
same,Protection,Rattus norvegicus [29],24%
same,Protection,Rattus norvegicus [30],40%
CSc1cc(-c2ccc(Cl)cc2)oc(=O)c1C(N)=O,Protection,Rattus norvegicus [1],16%
same,Protection,Rattus norvegicus [2],0%
same,Protection,Rattus norvegicus [3],15%
same,Protection,Rattus norvegicus [4],17%
same,Protection,Rattus norvegicus [5],10%
CCOC(=O)c1c(SC)c(C#N)c(-c2ccc(Cl)cc2)oc1=O,Protection,Rattus norvegicus [1],14%
same,Protection,Rattus norvegicus [2],16%
same,Protection,Rattus norvegicus [3],19%
same,Protection,Rattus norvegicus [4],0%
same,Protection,Rattus norvegicus [5],30%
CSc1cc(-c2ccc(F)cc2)oc(=O)c1,Protection,Rattus norvegicus [1],59%
same,Protection,Rattus norvegicus [2],15%
same,Protection,Rattus norvegicus [3],57%
same,Protection,Rattus norvegicus [4],30%
same,Protection,Rattus norvegicus [5],46%
CSc1cc(-c2cccnc2)oc(=O)c1C#N,Protection,Rattus norvegicus [1],12%
same,Protection,Rattus norvegicus [2],51%
same,Protection,Rattus norvegicus [3],12%
same,Protection,Rattus norvegicus [4],0%
same,Protection,Rattus norvegicus [5],38%
CSc1cc(-c2ccc(F)cc2)oc(=O)c1C#N,Protection,Rattus norvegicus [1],20%
same,Protection,Rattus norvegicus [2],0%
same,Protection,Rattus norvegicus [3],31%
same,Protection,Rattus norvegicus [4],15%
same,Protection,Rattus norvegicus [5],46%
